According to patent US7449494B1, “Polymeric skin moisturizing compounds” (SurfaTech Corporation, priority 2004, dated 2008):

Test system: rough dry skin
Experiment: Skin moisturization evaluation: appearance of treated skin under the dissection microscope
Assay type: in vivo
Details: 5% solution applied to skin; scale of 1 to 5, 1 being poor and 5 being best
Description: The effect of moisturization can be measured by the appearance of the skin when treated. Untreated skin that is in need of moisturization is rough, scaly and dry looking under the dissection microscope. The application of the moisturization solution to the skin and its effect upon minimizing roughness, scaling and dry appearance is a good measure of moisturization. We performed such an evaluation and rated the performance of a scale of 1 to 5. 1 being poor and 5 being best.

| Compound | Rating (moisturization: minimizing roughness, scaling and dry appearance) |
| --- | --- |
| C[N+](C)(C)CCO [Choline] | 4 |
| OCC(O)CO [Glycerin] | 2 |
